Experimental data reported in US6872841B2 (The University of North Carolina at Chapel Hill, priority 2002, dated 2005).
Read-outs that look alike come from different tables or passages of the source.

How the values were obtained:
[1] = test system: DNA topoisomerase II; experiment: In vitro topoisomerase II inhibition, plasmid relaxation/cleavage assay; type: biochemical; conditions: for Minimum concentration to detect linear DNA: DNA topoisomerase II inhibition; for Relative activity as topoisomerase II inhibitor versus standards: compared with GL-331 and etoposide
[2] = test system: A549 (lung adenocarcinoma); experiment: Cell growth inhibition (standard SRB assay), A549; type: cell-based, human; conditions: 3 days of continuous treatment, read-out: Cell growth inhibition ED50
[3] = test system: MCF-7 (breast adenocarcinoma); experiment: Cell growth inhibition (standard SRB assay), MCF-7; type: cell-based, human; conditions: 3 days of continuous treatment, read-out: Cell growth inhibition ED50
[4] = test system: KB-7d (MRP-pleotrophic multidrug-resistant KB sub-clone); experiment: Cell growth inhibition (standard SRB assay), KB-7d; type: cell-based, human; conditions: 3 days of continuous treatment, read-out: Cell growth inhibition ED50
[5] = test system: KB-7d (MRP-pleotrophic multidrug-resistant KB sub-clone); experiment: Cytotoxicity (cell killing after 30 minutes of treatment), KB-7d; conditions: kills 50% of the cells after 30 minutes of treatment
Experimental: (§1) Biological Assay and Results. […] Freshly trypsinized KB cells were exposed to drug at 5, 0.5, or 0.05 μM for 30 minutes, respectively. Then, 250 or 500 cells were immediately plated and left undisturbed for 12 days. Colonies were fixed with formalin and stained with toluidine blue.

[6] = test system: KB (nasopharyngeal carcinoma); experiment: Cell growth inhibition (standard SRB assay), KB; type: cell-based, human; conditions: 3 days of continuous treatment, read-out: Cell growth inhibition ED50
[7] = test system: KB cells; experiment: Clonogenic assay; type: cell-based, human; conditions: 5 μM for 30 minutes, colonies after 12 days
Experimental: as §1

[8] = test system: MCF-7 (breast adenocarcinoma); experiment: Cytotoxicity (cell killing after 30 minutes of treatment), MCF-7; conditions: kills 50% of the cells after 30 minutes of treatment
[9] = test system: A549 (lung adenocarcinoma); experiment: Cytotoxicity (cell killing after 30 minutes of treatment), A549; conditions: kills 50% of the cells after 30 minutes of treatment
[10] = test system: KB (nasopharyngeal carcinoma); experiment: Cytotoxicity (cell killing after 30 minutes of treatment), KB; conditions: kills 50% of the cells after 30 minutes of treatment
Experimental: as §1

| Compound | Minimum concentration to detect linear DNA [1] | Relative activity as topoisomerase II inhibitor versus standards [1] | EC50 [2] | EC50 [3] | EC50 [4] | Cytotoxicity LD50 [5] | EC50 [6] | % Inhibition [7] | Cytotoxicity LD50 [8] | Cytotoxicity LD50 [9] | Cytotoxicity LD50 [10] | EC50 ([2]; Homo sapiens, 72 h) | EC50 ([3]; Homo sapiens, MCF7, 72 h) | EC50 ([4]; Homo sapiens, KB7D, 72 h) | EC50 ([6]; Homo sapiens, 72 h) |
| --- | --- | --- | --- | --- | --- | --- | --- | --- | --- | --- | --- | --- | --- | --- | --- |
| COC(=O)[C@H](Cc1ccc(O)cc1)NC(=O)c1ccc(NC2c3cc4c(cc3C(c3cc(OC)c(O)c(OC)c3)C3C(=O)OCC23)OCO4)cc1 (stereo partly drawn) [Compound 12, 4′-O-demethyl-4β-[4″-(methyl L-tyrosine-N-carbonyl)-anilino]-4-desoxy-podophyllotoxin] | 5 µM | at least as active as GL-331 and four-fold more active than etoposide | 2.4 µM | 4.5 µM | 5 µM | <20 µM | 1.9 µM | 99.5% | <3.1 µM | 12.5 µM | 1.7 µM | – | – | – | – |
| COc1cc([C@@H]2c3cc4c(cc3[C@@H](O[C@@H]3O[C@@H]5CO[C@@H](C)O[C@H]5[C@H](O)[C@H]3O)[C@H]3COC(=O)[C@H]23)OCO4)cc(OC)c1O [Etoposide] | 20 µM | – | – | – | – | >50 µM | – | – | 21 µM | >50 µM | 49.0 µM | 5.2 µM | > 20 µM | > 10 µM | 0.75 µM |
| 4′-O-demethyl-4β-{4″-[4′″-(benzimidazol-2″″-yl)-amido]-anilino}-4-desoxypodophyllotoxin [Compound 14] | – | – | – | – | – | – | > 25 µM | – | – | – | – | – | – | – | – |
| COc1cc([C@@H]2c3cc4c(cc3[C@@H](Nc3ccc([N+](=O)[O-])cc3)[C@H]3COC(=O)[C@H]23)OCO4)cc(OC)c1O [GL-331, reference compound] | 5 µM | – | 0.7 µM | 12 µM | 1.9 µM | <50 µM | 0.3 µM | 46% | 5.3 µM | 6.6 µM | 9.9 µM | – | – | – | – |
| 4′-O-demethyl-4β-[4″-(methyl L-tryptophan-N-carbonyl)-anilino]-4-desoxypodophyllotoxin [Compound 13] | 5 µM | at least as active as GL-331 and four-fold more active than etoposide | – | – | < 0.1 µM | – | 0.75 µM | 82% | – | – | – | – | – | – | – |
| COc1cc(C2c3cc4c(cc3C(NC(=O)[C@H](Cc3ccc(O)cc3)NC(=O)OCc3ccccc3)C3COC(=O)C23)OCO4)cc(OC)c1O (stereo partly drawn) [Compound 10, 4′-O-demethyl-4β-[(N—CBZ-L-tyrosine-carbonyl)-amino]-4-desoxy-podophyllotoxin] | – | – | > 20 µM | – | 6.7 µM | – | 2.3 µM | – | – | – | – | – | – | – | – |
